{"source": "ChEMBL document CHEMBL5537109", "about": "“Natural products as potential lead compounds to develop new antiviral drugs over the past decade” (Eur J Med Chem, 2023)", "key": {"[1]": {"system": "Human immunodeficiency virus 1", "assay": "Antiviral activity against HIV-1 3B harboring reverse transcriptase infected in human MT4 cells assessed as protection against virus-induced cytopathic effect incubated for 5 days by MTT assay", "type": "functional, organism-based", "settings": "Human immunodeficiency virus 1, 3B, MT4, 120 h"}, "[2]": {"assay": "Cytotoxicity against human C8166 cells assessed as inhibition of cell growth by MTT assay", "type": "toxicity, cell-based"}, "[3]": {"system": "Human immunodeficiency virus 1", "assay": "Antiviral activity against HIV-1 3B harboring reverse transcriptase infected in human C8166 cells assessed as protection against virus-induced cytopathic effect incubated for 5 days by MTT assay", "type": "functional, organism-based", "settings": "Human immunodeficiency virus 1, 3B, C8166, 120 h"}, "[4]": {"system": "Human immunodeficiency virus 1", "assay": "Antiviral activity against HIV-1 3B infected in human MT4 cells assessed as inhibition of viral replication incubated for 5 days by MTT assay", "type": "functional, organism-based", "settings": "Human immunodeficiency virus 1, 3B, MT4, 120 h"}, "[5]": {"assay": "Cytotoxicity against human C8166 cells assessed as inhibition of cell growth incubated for 48 hrs by MTT assay", "type": "toxicity, cell-based"}, "[6]": {"biological_target": "Human immunodeficiency virus type 1 reverse transcriptase (Human immunodeficiency virus 1, UniProt Q72547)", "assay": "Inhibition of HIV1 reverse transcriptase"}, "[7]": {"system": "Human immunodeficiency virus 1", "assay": "Anti-HIV activity against HIV-1 IIIB infected in human C8166 cells assessed as inhibition of virus-induced cytopathic effect by MTT assay", "type": "functional, organism-based", "settings": "Human immunodeficiency virus 1, IIIB"}, "[8]": {"assay": "Cytotoxicity against MDCK cells assessed as inhibition of cell growth incubated for 48 hrs by MTT assay", "type": "toxicity, cell-based, Canis lupus familiaris", "settings": "dog"}, "Influenza A virus [9]": {"system": "Influenza A virus", "assay": "Antiviral activity against influenza A virus H1N1(A/PR/8/34) infected in MDCK cells assessed as inhibition of cytopathic effect incubated for 48 hrs by MTT assay", "type": "functional, organism-based"}, "Influenza A virus [10]": {"system": "Influenza A virus", "assay": "Antiviral activity against influenza A virus A/Hong Kong/1/68 (HK1, H3N2) infected in dog MDCK cells assessed as cytopathic effect", "type": "functional, organism-based"}, "Influenza A virus [11]": {"system": "Influenza A virus", "assay": "Antiviral activity against influenza A virus H5N1 infected in dog MDCK cells assessed as viral growth inhibition", "type": "functional, organism-based"}, "[12]": {"assay": "Inhibition of Influenza A virus A/California/04/2009 (H1N1) N-terminal his tagged domain of PA endonuclease expressed in Escherichia coli BL21 (DE3) cells"}, "Human alphaherpesvirus 1": {"system": "Human alphaherpesvirus 1", "assay": "Antiviral activity against HSV-1 assessed as inhibition of viral growth", "type": "functional, organism-based"}, "[13]": {"system": "Human immunodeficiency virus 1", "assay": "Antiviral activity against HIV-1 harboring reverse transcriptase infected in human MT4 cells assessed as reduction in virus-induced cytopathic effect", "type": "functional, organism-based", "settings": "Human immunodeficiency virus 1, MT4"}, "RAW264.7": {"system": "RAW264.7", "assay": "Cytotoxicity against mouse RAW264.7 cells assessed as reduction in cell viability incubated for 24 hrs by CCK-8 method", "type": "functional"}}}
{"smiles": "C=CC(C)(C)c1cc2cc(CC(=O)C(C)C)c(OC)cc2oc1=O", "values": [{"measurement": "EC50", "setting": "[1]", "value": 0.12, "unit": "µM"}, {"measurement": "CC50", "setting": "[2]", "value": "> 200", "unit": "µM"}]}
{"smiles": "COc1cc2oc(CO)cc(=O)c2c(O)c1CCC(C)(C)O", "values": [{"measurement": "EC50", "setting": "[3]", "value": 0.09, "unit": "µM"}, {"measurement": "CC50", "setting": "[2]", "value": "> 200", "unit": "µM"}]}
{"smiles": "C=CC(C)(C)c1cc2cc(C[C@@H](O)C(C)(C)O)c(O)cc2oc1=O", "values": [{"measurement": "EC50", "setting": "[3]", "value": 0.68, "unit": "µM"}, {"measurement": "CC50", "setting": "[2]", "value": "> 200", "unit": "µM"}]}
{"smiles": "C=CC(C)(C)c1cc2cc(C[C@@H](OCC)C(C)(C)O)c(OC)cc2oc1=O", "values": [{"measurement": "EC50", "setting": "[1]", "value": 0.42, "unit": "µM"}, {"measurement": "CC50", "setting": "[2]", "value": "> 200", "unit": "µM"}]}
{"smiles": "CC(C)=CCc1c(O)cc2oc(CO)cc(=O)c2c1O", "values": [{"measurement": "EC50", "setting": "[3]", "value": 0.67, "unit": "µM"}, {"measurement": "CC50", "setting": "[2]", "value": "> 200", "unit": "µM"}]}
{"smiles": "COc1cc2oc(CO)cc(=O)c2c(OC)c1CC=C(C)C", "values": [{"measurement": "EC50", "setting": "[3]", "value": 1.32, "unit": "µM"}, {"measurement": "CC50", "setting": "[2]", "value": "> 200", "unit": "µM"}]}
{"smiles": "C=CC(CO)[C@@H]1C[C@H]2c3[nH]c4ccccc4c3CCN2C(=O)[C@H]1CO", "note": "(stereo partly drawn)", "values": [{"measurement": "EC50", "setting": "[4]", "value": 0.06, "unit": "µM"}]}
{"smiles": "COc1c2c(cc3oc(CO)cc(=O)c13)OC(C)(C)C=C2", "values": [{"measurement": "EC50", "setting": "[3]", "value": 9.72, "unit": "µM"}, {"measurement": "CC50", "setting": "[2]", "value": "> 200", "unit": "µM"}]}
{"smiles": "C=CC(C)(C)c1cc2cc3c(cc2oc1=O)O[C@H](C(C)(C)O)[C@H]3O", "values": [{"measurement": "EC50", "setting": "[3]", "value": 0.17, "unit": "µM"}, {"measurement": "CC50", "setting": "[2]", "value": "> 200", "unit": "µM"}]}
{"smiles": "C=CC(CO)[C@@H]1C[C@H]2c3[nH]c4ccccc4c3CCN2C(=O)[C@@H]1CO", "note": "(stereo partly drawn)", "values": [{"measurement": "CC50 at 48 h", "setting": "[5]", "value": "> 200", "unit": "µM"}, {"measurement": "EC50", "setting": "[4]", "value": 0.23, "unit": "µM"}]}
{"smiles": "COc1cc2oc(CO)cc(=O)c2c(O)c1CC=C(C)C", "values": [{"measurement": "EC50", "setting": "[3]", "value": 0.96, "unit": "µM"}, {"measurement": "CC50", "setting": "[2]", "value": "> 200", "unit": "µM"}]}
{"smiles": "C=CC(C)(C)c1cc2cc(C[C@@H](OC)C(C)(C)O)c(OC)cc2oc1=O", "values": [{"measurement": "EC50", "setting": "[1]", "value": 0.33, "unit": "µM"}, {"measurement": "CC50", "setting": "[2]", "value": "> 200", "unit": "µM"}]}
{"smiles": "COc1cc(C)c(Cc2cc3c([nH]c4ccccc43)c3c2OC(C)(C)C=C3)c2c1[nH]c1ccccc12", "values": [{"measurement": "CC50 at 48 h", "setting": "[5]", "value": "> 200", "unit": "µM"}, {"measurement": "IC50", "setting": "[6]", "value": 0.0186, "unit": "µM"}]}
{"smiles": "COc1cccc2c1-c1c3c(c(OC)c4cc[n+]([O-])c(c14)C2=O)OCO3", "values": [{"measurement": "CC50 at 48 h", "setting": "[5]", "value": 56.6, "unit": "µM"}, {"measurement": "EC50", "setting": "[7]", "value": 2.18, "unit": "µM"}]}
{"smiles": "O=C(OC[C@H]1O[C@@H](Oc2ccc(O)cc2C(=O)O)[C@H](OC(=O)c2cc(O)c(O)c(O)c2)[C@@H](O)[C@@H]1O)c1cc(O)c(O)c(O)c1", "values": [{"measurement": "CC50 at 48 h", "setting": "[8]", "value": 835, "unit": "µM"}, {"measurement": "EC50", "setting": "Influenza A virus [9]", "value": 32.1, "unit": "µM"}, {"measurement": "EC50", "setting": "Influenza A virus [10]", "value": 31.2, "unit": "µM"}, {"measurement": "IC50", "setting": "Influenza A virus [11]", "value": 21.1, "unit": "µM"}, {"measurement": "IC50", "setting": "[12]", "value": 27.6, "unit": "µM"}]}
{"smiles": "COc1cc(OC)c([N+](=O)[O-])c2c1-c1c3c(c(OC)c4c1[C@@H](C2)NCC4)OCO3", "values": [{"measurement": "CC50 at 48 h", "setting": "[5]", "value": 28.7, "unit": "µM"}, {"measurement": "EC50", "setting": "[7]", "value": 1.93, "unit": "µM"}]}
{"smiles": "C/C=C1/C[N+]23CCc4c([nH]c5ccccc45)[C@@H]2C[C@H]1C3C(=O)[O-]", "note": "(stereo partly drawn)", "values": [{"measurement": "EC50", "setting": "Human alphaherpesvirus 1", "value": 1.09, "unit": "µg/mL"}]}
{"smiles": "C[C@H]1CC(=O)[C@@H]2CCCN(C)CCCC(=O)/C(=N\\O)C[C@@H]2C1", "values": [{"measurement": "CC50 at 48 h", "setting": "[5]", "value": "> 200", "unit": "µM"}, {"measurement": "EC50", "setting": "[7]", "value": 52.9, "unit": "µg/mL"}]}
{"smiles": "CCCCCC(O)/C=C/C=C\\CCCCCC[C@@]1(O)C[C@H](C(=O)OC)[C@H](C(C)=O)O1", "note": "(stereo partly drawn)", "values": [{"measurement": "EC50", "setting": "[3]", "value": 0.08, "unit": "µM"}, {"measurement": "CC50", "setting": "[2]", "value": "> 200", "unit": "µM"}]}
{"smiles": "C=C1[C@H]2O[C@@H](OC)[C@H]3[C@@H]1[C@@H]1O[C@@H]1[C@@]3(CO)O2", "values": [{"measurement": "IC50", "setting": "[6]", "value": 7.23, "unit": "µM"}, {"measurement": "CC50", "setting": "[2]", "value": "> 200", "unit": "µM"}]}
{"smiles": "C=C(C)[C@@]1(OC(=O)c2ccccc2)[C@H](OC(C)=O)[C@@H]2[C@H](OC(C)=O)[C@@]3(C)O[C@@]4([C@@H]3OC(C)=O)[C@@H](OC(=O)c3ccccc3)[C@@H](C)C[C@H]4[C@@]2(O)[C@H](C)[C@@H]1OC(C)=O", "values": [{"measurement": "EC50", "setting": "[13]", "value": 0.18, "unit": "µM"}, {"measurement": "CC50", "setting": "RAW264.7", "value": "> 200", "unit": "µM"}]}
